“Also recorded” adds a separate entry of the source.
T1: chick Engrailed-2 protein (Gallus gallus, UniProt Q05917)
T1 construct: expressed in transfected cells; host or cells: CHP100 neuroepithelial cell line, electroporated with pCL9mEn2
T1 sequence (Q05917 1-289): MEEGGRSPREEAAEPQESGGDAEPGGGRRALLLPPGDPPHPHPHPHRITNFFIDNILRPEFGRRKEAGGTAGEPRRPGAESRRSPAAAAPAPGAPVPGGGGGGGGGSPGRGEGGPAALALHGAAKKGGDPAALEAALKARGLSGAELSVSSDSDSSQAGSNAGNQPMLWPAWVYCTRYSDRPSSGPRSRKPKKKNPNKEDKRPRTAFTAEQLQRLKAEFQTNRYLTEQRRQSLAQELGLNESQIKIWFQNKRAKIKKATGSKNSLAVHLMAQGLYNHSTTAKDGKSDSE

T2: HDEn2C (chick Engrailed-2 protein from which amino acids 10 to 185 have been deleted) (Gallus gallus, UniProt Q05917, DEL10-185)
T2 construct: expressed in transfected cells; host or cells: CHP100 neuroepithelial cell line, electroporated with pCL9 mHDEn2C
T2 sequence (Q05917 with tags, fused parts or gaps DEL10-185): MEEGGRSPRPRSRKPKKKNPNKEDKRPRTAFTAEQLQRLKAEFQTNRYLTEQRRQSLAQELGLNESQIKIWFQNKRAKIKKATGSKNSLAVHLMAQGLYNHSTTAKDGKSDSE

B1: Engrailed-2: whole chick Engrailed-2 protein expressed from pCL9mEn2 under the CMV promoter (protein)
chain: T1 sequence (Q05917 1-289)

Tests used:
[1] = system: MAP1B promoter; assay: MAP1B promoter luciferase reporter (pMAP-luc) in CHP 100 cells, protein or peptide alone; type: cell-based; settings: luciferase 24 hours after transfection
Experimental: (§1) The transcriptional activity of Engrailed is evaluated as described by Montesinos et al. (J. Neurosci., 21, 3350-9, 2001), by measuring the expression of the luciferase reporter gene placed in the plasmid pMAP-luc under the control of a promoter that is a target for Engrailed, the MAP1B (microtubule-associated protein 1B) promoter.
(§2) Cells of the neuroepithelial line CHP 100 (Schlesinger et al, Cancer Res. 36, […], 1976) are cultured in RPMI 1640 (Life Technologies, Gaithersburg, Md.) supplemented with 16 mM glucose, 15% fetal calf serum, 5 U/ml of penicillin and 5 μg/ml of streptomycin, and cotransfected by electroporation with pMAP-luc and one of the following vectors:
(§3) pCL9mEn2 (Mainguy et al., Natural Biotechnol. 18: 746-749, 2000) which contains the sequence encoding the whole chick Engrailed-2 protein, under the control of the CMV promoter;
pCL9mEn2ΔH1 (Joliot et al., Curr Biol. 8: 856-863, 1998), which contains the sequence encoding the chick Engrailed-2 protein from which amino acids 36 to 46 of the homeodomain (DNA-binding sequence) have been deleted, under the control of the CMV promoter;
(§4) pCL9 mHDEn2C, which contains the sequence encoding the chick Engrailed-2 protein from which amino acids 10 to 185 have been deleted, under the control of the CMV promoter.
(§5) The electroporation is carried out with a maximum of 10 μg of plasmid DNA (2 μg of reporter plasmid pMAP-luc+variable amounts of En2 expression vector) per 8×10^5 cells in 350 μl of medium, at 1050 μF and at […]. 400 μl of medium are then added and the combination is allowed to stand for 10 min. The cells are then placed in culture, after washing, in two dishes (3.5 cm diameter).
(§6) The luciferase activity is assayed 24 hours after transfection. The cells are rinsed with PBS. Lysis buffer (20 mM Tris/H3PO4, pH 7.8, 10 mM MgCl2, 15% glycerol, 1 mM EDTA, 1% Triton-X 100, 1.25 mM ATP, 10 μg/ml luciferin) is added to the cells. After incubation at 4° C. for 30 min, the luciferase activity is measured by luminometry (Berthold Lumat LB 9501 luminometer).

[2] = target: T1, chick Engrailed-2 protein; assay: Effect of peptides on activation of the MAP1B promoter by Engrailed-2 in CHP100 cells (luciferase); type: cell-based; settings: for effect on the activation of MAP1B by Engrailed (in words): peptide + En2 cotransfected
Experimental: as §1, §2, §3, §5, §6
The CHP100 cells are cotransfected by electroporation, as defined above, with pMAP-luc (2 μg), pCL9mEn2 or pCL9 mHDEn2C (4 μg) and 4 μg of pCS2-pep1 or pCS2-pep2.

[3] = system: Engrailed; assay: Effect of peptides on the activity of Engrailed in primary cultures of mesencephalic neurons (pMAP-luc); type: cell-based; settings: primary mouse embryonic mesencephalic neurons; for effect on the activation of the MAP1B promoter in neurons: endogenous Engrailed
Experimental: In order to verify the functionality of peptides 1 and 2 in a physiological cellular context, the effect of these peptides was tested in primary cultures of mouse embryonic mesencephalic neurons.
Fragments of mouse mesencephalon (embryonic day 13.5) are incubated at 24° C. for 5 min in trypsin-EDTA, then washed in a phosphate buffer, pH 7.5, supplemented with 33 mM glucose (PBS) and 10% fetal calf serum, and subsequently incubated at 37° C. for 10 min in […] of DnaseI (Sigma, Saint Louis, Mo.). The cells are dissociated mechanically, washed three times with PBS, and placed in culture at a density of 200 000 cells/cm^2, in wells pre-saturated with D,L-poly-ornithine (1.5 μg/ml) and laminin (5 μg/ml). The culture medium (MMS) consists of DMEM/F12 (1/1, Life Technologies, Cergy, France), with 33 mM glucose, 2 mM glutamine, 10 mM HEPES, pH 7.4, 9 mM NaHCO^−3, 5 U/ml of penicillin and 5 μg/ml of streptomycin. Added to MSS are 0.1% of ovalbumin, 25 μg/ml of insulin, 100 μg/ml of transferrin, 20 nM of progesterone, 60 μM of putrescine and 30 nM selenium (M2OV).
The day after the cells were placed in culture, the medium, in each well, is replaced with 600 μl of MSS, without penicillin or streptomycin. 100 μl of the transfection mixture comprising pMAP-luc (0.5 μg) and 0.5 μg of pCS2-pep1 or pCS2-pep2, and 1 mg/ml of Lipofectamine 2000 (Invitrogen) in OPTI-MEM medium (qs 100 μl), mixed beforehand for 20 min at 24° C., are added to each well. The cells are then incubated at 37° C. for 2 h 30 min. The medium is then replaced with M20V.

[4] = system: Engrailed; assay: In vivo effect on the transcriptional activity of Engrailed, pMAP-lacZ β-galactosidase reporter in the neural tube of chick embryos; settings: chick embryo neural tube HH8-HH10, electroporation, 24 h
Experimental: The effect of pep1 or pep2 on the transcriptional activity of Engrailed was evaluated by measuring the expression of the β-galactosidase reporter gene placed in the plasmid pMAP-lacZ (described by Montesinos et al., 2001, mentioned above) under the control of the MAP1B promoter, in the neural tube of chick embryos at the HH8-HH10 stage.
The vectors pCS2-pep1 or pCS2-pep2, and also the vector pMAP-lacZ vector (each vector is used at a concentration of 1 μg/μl), were introduced by electroporation into the neural tube of chick embryos at the HH8-HH10 stage in accordance with the protocol of Muramatsu et al. (1997), with a BTX ECM 830 electroporator (4 pulses of 25 V and 50 msec) (Genetronics, San Diego, Calif.). The vectors were injected into the neural tube using a micropipette.

[5] = target: T2, HDEn2C (chick Engrailed-2 protein from which amino acids 10 to 185 have been deleted); assay: Effect of peptides on activation of the MAP1B promoter by HDEn2C (Engrailed homeodomain) in CHP100 cells (luciferase); type: cell-based; settings: HDEn2C + peptide cotransfected
Experimental: as §1, §2, §4
as §5, with “The cells are then placed in culture, after washing, in two dishes (3.5 cm diameter).” left out
The luciferase activity is assayed 24 hours after transfection. […] After incubation at 4° C. for 30 min, the luciferase activity is measured by luminometry (Berthold Lumat LB 9501 luminometer). […]

| Molecule | activation of the MAP1B promoter by the protein or peptide alone [1] | effect on the activation of MAP1B by Engrailed (in words) [2] | increase of the activation of MAP1B by Engrailed ([2]; peptide introduced at the same time as Engrailed-2 (4 μg each vector)) | effect on the activation of the MAP1B promoter in neurons [3] | effect on the activation of the MAP1B promoter in vivo (β-galactosidase) [4] | effect on the activation of MAP1B by the HDEn2C peptide [5] | activating effect compared with peptide 1 in neurons [3] |
| --- | --- | --- | --- | --- | --- | --- | --- |
| HOXA5: another homeodomain protein | activated |  |  |  |  |  |  |
| KVWDIRYTTPHA [aOTX2, reference compound] |  | does not modify |  |  |  |  |  |
| SWWETQLIASSG [Peptide 1] | no action | activating effect | approximately 50% | increased | increased | greatly increased |  |
| WSWNEEVWFPFT [Peptide 2] | no effect | inhibitor; also recorded: inhibitory effect |  | increased | increases the activation | increases the activation | greater than that of peptide 1 |
| B1 | capable of activating |  |  |  |  |  |  |

Source: US20090131320A1, “PEPTIDES MODULATING THE ACTIVITY OF THE ENGRAILED TRANSCRIPTION FACTOR” (Centre National De La Recherche Scient., priority 2003, published 2009)
